Experimental data: article PMC8404199, “Structure–Activity Relationships of Triple-Action Platinum(IV) Prodrugs with Albumin-Binding Properties and Immunomodulating Ligands” (Journal of Medicinal Chemistry, 2021)
Read-outs that look alike come from different tables or passages of the source.

Tests used:
IDO = assay: LC-HRMS of 1-MDT and Trp metabolites in tumor tissue; format: in vivo, mice; conditions: 24 h after treatment
Experimental: To 50 mg of tumor tissue, 50 μL of fully ^13C internal standard (labeled yeast extract prepared in 2 mL of H2O; ISOtopic solutions e.U., Vienna, Austria) and 950 μL of 80% MeOH (LC–MS grade, Sigma-Aldrich, Vienna, Austria) were added and homogenized in a Dounce-type glass tissue grinder. The homogenate was collected, the tissue homogenizer was washed twice with 400 μL 80% MeOH (LC–MS grade, Sigma-Aldrich, Vienna, Austria), and the washing solution was added to the homogenate. The samples were vortexed, centrifuged (14,000g, 4 °C, 20 min), and kept on dry ice until further processing. 500 μL of tumor sample aliquots was dried for direct LC–HRMS analysis.
All samples were resuspended in 100 μL of water (supernatant sample: same volume; tumor samples 5-fold concentration) and measured using a 12 min method based on reversed-phase chromatography (column: HSS T3, 1.8 μm, 2.1 × 150 mm, Waters) and high-resolution mass spectrometry (Orbitrap HF, Thermo). For quantification, multi-point calibration with external standard mixes (Kyn, Trp, and kynurenic acid) using co-eluting ^13C internal standards was performed and analyzed by Skyline 20.2.0.286. For 1-MDT, relative quantification based on ^13C Trp normalization was performed.

[1] = test system: CT26 colon cancer allografts; assay: Anticancer activity against CT26 allografts in Balb/c mice; format: in vivo; conditions: iv, equimolar to 9 mg/kg oxaliplatin, twice a week for 2 weeks
Experimental: Every day, the animals were monitored for body weight and the enhanced stress level, and the tumor size was measured using a caliper according to the formula length × width^2/2.

[2] = Organ distribution of platinum in SKOV3-bearing SCID mice; conditions: 24 h after single iv dose equimolar to 9 mg/kg oxaliplatin; for Platinum ratio tumor:kidney / Platinum ratio tumor:liver: ratio of mean platinum levels
Experimental: For tissue digestion, approx. 25–50 mg of tissue was weighed into perfluoralkoxy tubes, and 2 mL of HNO3 and 100 μL H2O2 (30%, Suprapur, Merck, Darmstadt, Germany) were added. The solutions were placed on a hot plate and heated up for 7 h using a temperature program with a maximum of 200 °C. The liquids were transferred to 15 mL tubes with the remaining solution being removed by washing twice with 4 mL of ultrapure water.
Platinum concentrations were measured using an Agilent 7800 ICP-QMS instrument (Agilent Technologies, Tokyo, Japan) equipped with an Agilent SPS 4 autosampler (Agilent Technologies, Tokyo, Japan) and a MicroMist nebulizer at a sample uptake rate of approx. 0.2 mL/min. […] All of the measured samples were blank corrected (for the cell culture data, wells containing no cells were used). Elemental standard solutions were purchased from Labkings (Hilversum, The Netherlands). The instrument was tuned on a daily basis.
SKOV3 cells (1.5 × 10^6 cells in 50 μL serum-free medium) were injected subcutaneously into the right flank of male SCID mice. […] Then, the animals were sacrificed by cervical dislocation, and tumors and organs were collected for the measurement with ICP–MS. For plasma isolation, blood was collected in ethylenediaminetetraacetic acid (EDTA)-coated tubes and centrifuged for 10 min at 900g at 4 °C. Plasma was transferred to a new tube and centrifuged once more to remove residual red blood cells.

[3] = test system: tumor-infiltrating T-cell populations; assay: Flow cytometry of T-cell populations in CT26 tumors and tumor-draining lymph nodes; format: in vivo, Balb/c mice; conditions: 24 h after single iv treatment equimolar to 9 mg/kg oxaliplatin
Experimental: CT26 cells (5 × 10^5 cells in 50 μL of serum-free RPMI medium) were injected into the right flank of female Balb/c mice (n = 4 per group). On day 7, when the tumors reached a mean tumor volume of ∼170 mm^3, mice were treated once iv with MalEs/IdoCa at a concentration equimolar to 9 mg/kg (dissolved in 20% PG in PBS) or solvent only. After 24 h, the animals were sacrificed, and tumor tissues and the tumor-draining lymph nodes were isolated. Tissues were collected in a tube with 750 μL of ice-cold PBS containing 5% FBS and cut into small pieces. Samples were digested using PBS containing 50 mg/mL collagenase (C2139, Merck, Darmstadt, Germany) and 50 mg/mL DNase I (DN25, Darmstadt, Germany) and filtered several times through a 70 μm cell strainer (734-2761, VWR, Pennsylvania, USA). The samples were centrifuged, and cell pellets were treated with ammonium–chloride–potassium (ACK)-buffer (150 mM NH4Cl, 10 mM KHCO3, 127 μM EDTA, pH 7.2–7.4) to lyse red blood cells and centrifuged in a Würzburg buffer (PBS containing 5% FBS, 5 mM EDTA, 20 μg/mL DNase I).
Cells were washed with PBS and stained using the Aqua Zombie Fixable Viability Kit (423101, BioLegend, California, USA), according to the manufacturer’s instructions. […] The cleaned up data were analyzed using the gating strategy, as shown in Figure S15 for murine tissue and Figure S16 for human co-culture experiment.

[4] = UHPLC reduction experiments with L-ascorbic acid; format: physicochemical; conditions: 1 mM complex, 10 mM AA, pH 7.4, 20 °C
Experimental: The platinum(IV)–succinimide complexes were dissolved in 2% DMF in phosphate buffer (500 mM, pH 7.4) to a final concentration of 2 mM. The solutions were then mixed 1:1 with a 20 mM stock of L-ascorbic acid in phosphate buffer (500 mM, pH 7.4) to obtain final concentrations of 1 mM complex, 10 mM L-ascorbic acid, and 1% DMF. The samples were incubated at 20 °C and measured on a Dionex UltiMate 3000 RS UPLC system with a Waters Acquity UPLC BEH C18 column (3 × 50 mm, pore size 1.7 μm) and absorption detection at 220 nm. Data points were taken at t = 0 and every 30 min for 6 h.

[5] = UHPLC reduction kinetics with dithiothreitol; format: physicochemical; conditions: 1 mM complex, 10 mM DTT, 1% DMF, 500 mM phosphate buffer pH 7.4, 20 °C
Experimental: Figure S 3: Reduction kinetics of reference compounds with AA at 20°C , measured by UHPLC and UV absorption at 220 nm. A: Comparison of OAc/IPAEs with amino -group containing SucCa/IdoEs; B:
Reductive stability of reference compounds with no 1MDT -like ligand. AUC-values were normalized to t = 0. Experimental conditions: 1 mM complex, 10 mM AA in 1% DMF and 500 mM phosphate buffer […]
conditions: 1 mM complex, 10 mM DTT in 1% DMF and 500 mM phosphate buffer (pH 7.4). […]

[6] = test system: murine CT26 colon cancer cells; assay: MTT cytotoxicity assay in CT26 cells; format: cell-based
Experimental: (§1) Cells were additionally incubated with 5-fold equimolar concentrations of ascorbic acid to increase the reduction rate of the compounds. Cell viability was measured by the MTT-based vitality assay (EZ4U; Biomedica, Vienna, Austria), following the manufacturer’s recommendations.

[7] = test system: human HCT116 colon cancer cells; assay: MTT cytotoxicity assay in HCT116 cells; format: cell-based
Experimental: as §1

[8] = test system: human embryonic kidney cells (HEK293); assay: MTT cytotoxicity assay in non-malignant HEK293 cells; format: cell-based; conditions: 72 h
Experimental: (§2) The cells were seeded at 3500–6000 cells/well in 96-well plates depending on the proliferation rate of the respective cell line and allowed to recover for 24 h. Subsequently, the cells were treated at indicated concentrations for 48 or 72 h. Cells were additionally incubated with 5-fold equimolar concentrations of ascorbic acid to increase the reduction rate of the compounds. Cell viability was measured by the MTT-based vitality assay (EZ4U; Biomedica, Vienna, Austria), following the manufacturer’s recommendations.

[9] = test system: human hepatic cell line (WRL68); assay: MTT cytotoxicity assay in non-malignant WRL68 cells; format: cell-based; conditions: 72 h
Experimental: as §2

human SKOV3 cancer cells = assay: MTT cytotoxicity assay in SKOV3 cells; format: cell-based; conditions: 72 h incubation, with 5 eq. AA; read-out: SKOV3 IC50 values + 5 eq. AA, mean
Experimental: as §2

[10] = test system: VM7 melanoma cancer cells; assay: MTT cytotoxicity assay in VM7 cells; format: cell-based, human; conditions: 72 h
Experimental: as §2

SKOV3 cancer cells = assay: Long-term cytotoxicity assay (crystal violet) in SKOV3 cells; format: cell-based, human; conditions: 168 h, crystal violet stain, mean ± SD
Experimental: SKOV3 cells were seeded in duplicates at 5000 cells/well in 24-well plates and allowed to recover for 24 h. Subsequently, the cells were treated at the indicated concentrations for 168 h. Cells were fixed with ice-cold methanol (20 min at 4 °C), washed with PBS, and stained with crystal violet. Subsequently, colony formation was inspected, and the fluorescence signal was detected using Typhoon Trio imager (GE Healthcare, Little Chalfont, UK) at 610/30 nm BP and analyzed by ImageJ software.

HCT116 cells = assay: Cellular platinum levels in HCT116 cells by ICP-MS; format: cell-based, human; conditions: HCT116, 20 μM, 3 h incubation
Experimental: HCT116 cells were seeded at 6 × 10^5 cells/well in a six-well plate and allowed to settle for 24 h. Cells were exposed to drugs at 20 μM for 3 h under normal cell culture conditions. Cells were washed twice with PBS and lysed at RT in 500 μL HNO3 (≥69%, Rotipuran Supra, Carl Roth, Karlsruhe, Germany) for 1 h. 400 μL of the lysate was transferred to 7.6 mL of ultrapure water (18.2 MΩ cm, Milli-Q Advantage, Darmstadt, Germany).
The instrument was tuned on a daily basis.

Cn1cc(C[C@@H]([NH3+])C(=O)[O][Pt]2([O]C(=O)NCCCCCN3C(=O)C=CC3=O)[O]C(=O)C(=O)[O]2)c2ccccc21.N[C@@H]1CCCC[C@H]1N.O=C([O-])C(F)(F)F [MalCa/IdoEs, (OC-6-34)-[(R)-2-Ammonio-3-(1-methyl-1H-indol-3-yl)propanoato][(1R,2R)-1,2-cyclohexanediamino][5-(2,5-dioxo-2,5-dihydro-1H-pyrrol-1-yl)pentylcarbamato]oxalatoplatinum(IV) Trifluoroacetate]
kynurenic acid in tumors (in words) (IDO): enhanced signals
anticancer activity against CT26 tumors (in words) [1]: significant anticancer activity
platinum levels in blood plasma [2]: 1.9 mg/kg
Platinum ratio tumor:kidney [2]: 0.6
Platinum ratio tumor:liver [2]: 0.6

Cn1cc(C[C@@H](NC(=O)[O][Pt]2([O]C(=O)CCCCCN3C(=O)C=CC3=O)[O]C(=O)C(=O)[O]2)C(=O)O)c2ccccc21.N[C@@H]1CCCC[C@H]1N [MalEs/IdoCa, (OC-6-34)-[(R)-(1-Carboxy-2-(1-methyl-1H-indol-3-yl)ethyl)carbamato][(1R,2R)-1,2-cyclohexanediamino][6-(2,5-dioxo-2,5-dihydro-1H-pyrrol-1-yl)hexanoato]oxalatoplatinum(IV)]
IDO activity in tumor, Trp to Kyn ratio (in words) (IDO; compared to solvent- or MalCa/IdoEs-treated animals): inhibition of IDO activity indicated by an improved Trp to Kyn ratio
1-MDT levels in tumor, fold higher than upon MalCa/IdoEs treatment (IDO; SKOV3 tumor tissue): ~2 fold
anticancer activity against CT26 tumors (in words) [1]: activity comparable to MalCa/IdoCa
immune cell population in tumor-draining lymph nodes [3]: no effect
ratio of CD4+ to CD8+ T cells in the malignant tissue [3]: significant shift
plasma platinum concentration, fold higher than oxaliplatin or OAc/OAc [2]: ~12 fold
platinum levels in blood plasma [2]: 5.9 mg/kg
Platinum ratio tumor:kidney [2]: 1.2
Platinum ratio tumor:liver [2]: 0.7

CC(=O)[O][Pt]12([O]C(=O)CCc3cn(C)c4ccccc34)([NH]C3CCCCC3[NH]1)[O]C(=O)C(=O)[O]2 [OAc/IPAEs, (OC-6-44)-Acetato[(1R,2R)-1,2-cyclohexanediamino][3-(1-methyl-1H-indol-3-yl)propanoato]oxalatoplatinum(IV)]
reduction kinetics with AA (in words) [4]: comparable reduction kinetics to the carbamate-linked complexes
reduction in the presence of dithiothreitol (in words) [5]: stable under these conditions

O=C1[O][Pt]2([NH][C@@H]3CCCC[C@H]3[NH]2)[O]C1=O [oxaliplatin, reference compound]
IC50 ([6]; 48 h incubation, with 5 equiv AA, read-out: CT26 IC50 values +AA, mean ± SD): 1.53 ± 0.25 µM
IC50 ([6]; 48 h incubation, without AA, read-out: CT26 IC50 values, mean ± SD): 1.5 ± 0.39 µM
IC50 ([6]; 72 h incubation, with 5 eq. AA, read-out: CT26 IC50 values + 5 eq. AA, mean): 2.11 µM
IC50 ([6]; 72 h incubation, without AA, read-out: CT26 IC50 values, mean): 1.9 µM
IC50 ([7]; 48 h incubation, with 5 equiv AA, read-out: HCT116 IC50 values +AA, mean ± SD): 0.67 ± 0.01 µM
IC50 ([7]; 48 h incubation, without AA, read-out: HCT116 IC50 values, mean ± SD): 0.72 ± 0.01 µM
IC50 ([7]; 72 h incubation, with 5 eq. AA, read-out: HCT116 IC50 values + 5 eq. AA, mean): 0.74 µM
IC50 ([7]; 72 h incubation, without AA, read-out: HCT116 IC50 values, mean): 0.76 µM
IC50 [8]: 2.1 µM
IC50 [9]: 8.35 µM
IC50 (human SKOV3 cancer cells): 43.4 µM
IC50 [10]: 3.94 µM
IC50 (SKOV3 cancer cells): 6.2 ± 1.1 µM
cellular platinum uptake (in words) (HCT116 cells): taken up by the cells much more efficiently than any of the platinum(IV) prodrugs
